Consider eight compounds from ChEMBL document CHEMBL3046043, “Antihyperglycaemic activity of Sinularia firma and Sinularia erecta in streptozotocin-induced diabetic rats” (Med Chem Res, 2008).

The species entered for one assay is Homo sapiens. Nature of the assay: Inhibition of glycogen phosphorylase (unknown origin) assessed as inorganic phosphate production at 100 uM after 30 min.
Assay [1] addresses T1, Tyrosine-protein phosphatase non-receptor type 1 (Homo sapiens) (UniProt P18031).
T1 sequence (whole entry): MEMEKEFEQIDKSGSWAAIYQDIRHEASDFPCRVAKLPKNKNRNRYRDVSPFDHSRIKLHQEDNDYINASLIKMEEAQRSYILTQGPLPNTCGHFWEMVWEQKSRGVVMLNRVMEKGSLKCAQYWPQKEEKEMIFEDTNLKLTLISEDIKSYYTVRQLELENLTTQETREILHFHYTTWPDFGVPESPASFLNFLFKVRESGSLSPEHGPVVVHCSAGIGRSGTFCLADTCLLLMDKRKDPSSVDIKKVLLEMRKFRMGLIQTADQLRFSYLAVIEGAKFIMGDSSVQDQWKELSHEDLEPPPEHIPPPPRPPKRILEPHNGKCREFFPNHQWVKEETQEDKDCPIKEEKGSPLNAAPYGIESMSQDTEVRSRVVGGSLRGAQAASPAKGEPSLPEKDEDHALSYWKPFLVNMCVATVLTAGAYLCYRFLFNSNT
Nature of the assay: Inhibition of PTP1B (unknown origin) using p-nitrophenyl phosphate as substrate assessed as p-nitrophenolate ions production at 100 uM after 10 min.

The target in assay [2] is T2, Glucose-6-phosphatase catalytic subunit 1 (Homo sapiens) (UniProt P35575).
T2 sequence (whole entry): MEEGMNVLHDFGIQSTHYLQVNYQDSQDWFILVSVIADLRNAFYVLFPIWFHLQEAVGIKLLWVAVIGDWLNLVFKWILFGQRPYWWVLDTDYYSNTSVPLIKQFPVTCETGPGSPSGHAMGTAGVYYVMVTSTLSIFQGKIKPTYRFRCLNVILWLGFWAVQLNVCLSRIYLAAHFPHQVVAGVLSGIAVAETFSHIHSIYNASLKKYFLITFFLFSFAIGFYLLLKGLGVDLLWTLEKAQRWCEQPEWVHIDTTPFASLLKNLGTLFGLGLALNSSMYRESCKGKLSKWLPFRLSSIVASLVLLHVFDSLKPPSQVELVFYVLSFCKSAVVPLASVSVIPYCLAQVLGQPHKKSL
Nature of the assay: Inhibition of glucose-6-phosphatase (unknown origin) using glucose-6-phosphate as substrate assessed as inorganic phosphate production at 100 uM after 30 min.

SMILES strings stand for the structures.

In general, inhibition refers to the share of the control response that was lost under treatment. As for `CCCCC/C=C/CC/C=C/[C@@H](O)[C@H](CO)NC(=O)CCCCCCCCCCCCCCC`, the inhibition was determined as 11.3% in the assay filed under Homo sapiens, 4.1% in assay [1] and 14.6% in assay [2].
For `CCCCCCCCCCCCCCCCCCCCCCO[C@H]1OC[C@H](O[C@H]2OC[C@H](O[C@H]3OC[C@H](O)[C@H](O)[C@H]3O)[C@H](OC(C)=O)[C@H]2O)[C@H](O)[C@H]1O`, the inhibition is 8.9% in the assay listed under Homo sapiens, 5.9% in assay [1] and 8.6% in assay [2].
The like results for `C=C(CCCC(C)C)[C@H]1CCC2C3CC=C4C[C@@H](O)CC[C@]4(C)C3CC[C@@]21C` (some centres undefined) were, in that order, 10.2%, 7.6% and 15.9%.
As to `CCCCCCCCCCCCCCCCCOC(=O)CCCCCCCCCCCCCCCC`, the values for the inhibition (in the assay listed under Homo sapiens; in assay [1]; in assay [2]) were 18.9%, 1.3% and 12.7%, respectively.
In the case of `CCCCCCCCCCC/C=C/C[C@@H](O)[C@H](CO)NC(=O)[C@H](O)CCCCCCCCCCCCCCCCCC`, the inhibition came out at 9.5% in the assay listed under Homo sapiens, 1.3% in assay [1] and 10.2% in assay [2].
With `CCCCCCCCCCCCCCCCO[C@H]1OC[C@H](O[C@H]2OC[C@H](O[C@H]3OC[C@H](O)[C@H](O)[C@H]3O)[C@H](O)[C@H]2O)[C@H](O)[C@H]1O`, the figures for the inhibition (in the assay listed under Homo sapiens; in assay [1]; in assay [2]) were 10.2%, 0.2% and 12%, respectively.
For the compound `CCCCCCCCCCCCCCCCCCC(=O)OCCCCCCCCCCCCCCCCC`, the inhibition in the assay filed under Homo sapiens stood at 17.2%; in assay [1] it was 11.1%; in assay [2], 8.56%.
As to `CCCCCCCCCCCCCCCCCCOCC(O)CO` (centres undefined), the inhibition stood at 14.2% in the assay listed under Homo sapiens, 4.1% in assay [1] and 4.25% in assay [2].
